The target of the test is Replicase polyprotein 1ab (Severe acute respiratory syndrome coronavirus 2, UniProt P0DTD1). Briefly: Inhibition of recombinant SARS-CoV-2 Main protease using TAMRA-SITSAVLQSGFRKMK-DABCYL-OH fluorogenic peptide as substrate preincubated or 30 mins followed by substrate addition by FRET assay.
Turning to `CC1(C)[C@@H]2[C@@H](C(=O)N[C@H](C#N)C[C@@H]3CCNC3=O)N(C(=O)c3cc4c(OC(F)F)cccc4[nH]3)C[C@@H]21`, the 50% inhibitory concentration (IC50) is 100 nM. With `CC(=O)N[C@H](C(=O)N1C[C@H]2[C@@H]([C@H]1C(=O)N[C@H](C#N)C[C@@H]1CCNC1=O)C2(C)C)C(C)(C)C`, the IC50 is < 100 nM.

Take `COc1cccc2[nH]c(C(=O)N3C[C@@H]4CCC[C@@H]4[C@H]3C(=O)N[C@H](C=O)C[C@@H]3CCNC3=O)cc12`: the IC50 is < 100 nM. The result for `COc1cccc2[nH]c(C(=O)N3C[C@@H]4CCC[C@@H]4[C@H]3C(=O)N[C@@H](C[C@@H]3CCNC3=O)C(=O)COC(=O)c3c(Cl)cccc3Cl)cc12` reads < 100 nM. Regarding `CC(C)(C)[C@H](NC(=O)Cc1ccccc1)C(=O)N1C[C@H]2[C@@H]([C@H]1C(=O)N[C@H](C#N)C[C@@H]1CCNC1=O)C2(C)C`, the concentration for half-maximal inhibition (IC50) was < 100 nM. The result for `N#C[C@H](C[C@@H]1CCNC1=O)NC(=O)[C@@H]1CCCN1C(=O)c1cc2c(OC(F)F)cccc2[nH]1` reads > 1000 nM. Consider `CC(C)(C)C(=O)N[C@H](C(=O)N1C[C@H]2[C@@H]([C@H]1C(=O)N[C@H](C#N)C[C@@H]1CCNC1=O)C2(C)C)C(C)(C)C`, for which the IC50 is < 100 nM. Next, `COc1cccc2[nH]c(C(=O)N3C[C@@H]4CCC[C@@H]4[C@H]3C(=O)N[C@@H](C[C@@H]3CCNC3=O)C(=O)C(=O)NC3CCCCC3)cc12`: < 100 nM; `CC(C)(C)[C@H](NC(=O)C1CCCCC1)C(=O)N1C[C@H]2[C@@H]([C@H]1C(=O)N[C@H](C#N)C[C@@H]1CCNC1=O)C2(C)C`: < 100 nM. As to `CCC(=O)N[C@H](C(=O)N1C[C@H]2[C@@H]([C@H]1C(=O)N[C@H](C#N)C[C@@H]1CCNC1=O)C2(C)C)C(C)(C)C`, the IC50 was < 100 nM. Regarding `COc1cccc2[nH]c(C(=O)N3C[C@@H]4CCC[C@@H]4[C@H]3C(=O)N[C@@H](C[C@@H]3CCNC3=O)C(=O)CO)cc12`, the IC50 amounted to 100 nM. The result for `CC(C)C(=O)N[C@H](C(=O)N1C[C@H]2[C@@H]([C@H]1C(=O)N[C@H](C#N)C[C@@H]1CCNC1=O)C2(C)C)C(C)(C)C` reads < 100 nM; that for `COc1cccc2[nH]c(C(=O)N3C[C@@H]4CCC[C@@H]4[C@H]3C(=O)N[C@@H](C[C@@H]3CCNC3=O)C(=O)CCl)cc12`, 100 nM.

What is called IC50 is the concentration that gives 50% inhibition.

Source of the values: ChEMBL document CHEMBL5143762, “Novel Coronavirus Main Protease Di- and Tripeptide Inhibitors for Treating COVID-19” (ACS Med Chem Lett, 2022).
